Measurements from article PMC4303209, “A novel phosphatidylinositol 3-kinase (PI3K) inhibitor directs a potent FOXO-dependent, p53-independent cell cycle arrest phenotype characterized by the differential induction of a subset of FOXO-regulated genes” (Breast Cancer Research : BCR, 2014).

System: MCF-7 breast cancer cells
Assay: Microarray gene expression analysis (Agilent whole human genome 4 x 44K; compound vs DMSO, LIMMA log2 fold change)
Type: cell-based
Settings: cell cycle genes

Cn1ncc2c(N3CCOCC3)nc(-c3cccc(O)c3)nc21 [ETP-45658] was tested, and the “TRIAP1 log2FC” value (Gene 51499) was -0.820, the “DTL log2FC” value (Gene 51514) was 0.044 and the “SIRT7 log2FC” value (Gene 51547) was 0.404. The “CINP log2FC” value (Gene 51550) was -0.074, the “GINS2 log2FC” value (Gene 51659) was -0.721 and the “NUP54 log2FC” value (Gene 53371) was 0.683. The “PELO log2FC” value (Gene 53918) was -0.595, the “WNT4 log2FC” value (Gene 54361) was -0.709 and the “ANLN log2FC” value (Gene 54443) was 0.699. The “FBXW5 log2FC” value (Gene 54461) was -0.054, the “FAM64A log2FC” value (Gene 54478) was 0.090 and the “DDX4 log2FC” value (Gene 54514) was -0.146. The “BTG4 log2FC” value (Gene 54766) was 0.249, the “NDE1 log2FC” value (Gene 54820) was 0.535 and the “NSUN2 log2FC” value (Gene 54888) was -0.186. The “TTC19 log2FC” value (Gene 54902) was 0.753, the “TXNL4B log2FC” value (Gene 54957) was 0.617 and the “BANP log2FC” value (Gene 54971) was -0.168. For the same molecule, the “AURKAIP1 log2FC” value (Gene 54998) was -0.353, the “PHIP log2FC” value (Gene 55023) was 1.243 and the “USP47 log2FC” value (Gene 55031) was 0.762. For the same molecule, the “ZWILCH log2FC” value (Gene 55055) was 0.619, the “PIWIL2 log2FC” value (Gene 55124) was -0.029 and the “CEP192 log2FC” value (Gene 55125) was 0.534. The “CDCA8 log2FC” value (Gene 55143) was -0.107, the “RFWD3 log2FC” value (Gene 55159) was -0.597 and the “CEP55 log2FC” value (Gene 55165) was 1.059. The “CENPQ log2FC” value (Gene 55166) was 0.796, the “RIF1 log2FC” value (Gene 55183) was 0.443 and the “ARL8B log2FC” value (Gene 55207) was 0.686. The “RCBTB1 log2FC” value (Gene 55213) was 0.799, the “CCDC87 log2FC” value (Gene 55231) was -0.125 and the “STEAP3 log2FC” value (Gene 55240) was -0.569. For the same molecule, the “MNS1 log2FC” value (Gene 55329) was 0.765, the “MCM10 log2FC” value (Gene 55388) was -0.683 and the “SMPD3 log2FC” value (Gene 55512) was -0.280. For the same molecule, the “TRIM36 log2FC” value (Gene 55521) was 0.705, the “RBM38 log2FC” value (Gene 55544) was -0.536 and the “PRR5 log2FC” value (Gene 55615) was 0.335. The “PRPF40A log2FC” value (Gene 55660) was 1.175, the “CEP72 log2FC” value (Gene 55722) was 0.344 and the “CHFR log2FC” value (Gene 55743) was -0.026. The “NUP133 log2FC” value (Gene 55746) was 0.409, the “CCAR1 log2FC” value (Gene 55749) was 0.836 and the “CDK5RAP2 log2FC” value (Gene 55755) was 0.516. The “PCID2 log2FC” value (Gene 55795) was 0.322, the “CENPN log2FC” value (Gene 55839) was 0.469 and the “PPP2R2D log2FC” value (Gene 55844) was 0.037. For the same molecule, the “HDAC8 log2FC” value (Gene 55869) was -0.325, the “PBK log2FC” value (Gene 55872) was 0.522 and the “BIN3 log2FC” value (Gene 55909) was -0.746. For the same molecule, the “ERBB2IP log2FC” value (Gene 55914) was 1.051, the “RCC2 log2FC” value (Gene 55920) was -0.248 and the “KLHL9 log2FC” value (Gene 55958) was 0.133. The “TEX11 log2FC” value (Gene 56159) was -0.066, the “TDRD1 log2FC” value (Gene 56165) was 0.246 and the “PARD3 log2FC” value (Gene 56288) was 0.418. The “RPRM log2FC” value (Gene 56475) was -0.078, the “CYP26B1 log2FC” value (Gene 56603) was 0.090 and the “SPIRE1 log2FC” value (Gene 56907) was 0.377. For the same molecule, the “SMARCAD1 log2FC” value (Gene 56916) was 0.653, the “PRDM9 log2FC” value (Gene 56979) was 0.085 and the “KIF15 log2FC” value (Gene 56992) was 1.353. The “PDXP log2FC” value (Gene 57026) was -1.027, the “PCBP4 log2FC” value (Gene 57060) was -0.519 and the “CASC5 log2FC” value (Gene 57082) was 0.187. The “PCNP log2FC” value (Gene 57092) was 0.687, the “NUP107 log2FC” value (Gene 57122) was 0.862 and the “CHMP1B log2FC” value (Gene 57132) was 0.826. For the same molecule, the “PAK7 log2FC” value (Gene 57144) was 0.396, the “CSRP2BP log2FC” value (Gene 57325) was 0.412 and the “TTYH1 log2FC” value (Gene 57348) was -0.189. For the same molecule, the “BIRC6 log2FC” value (Gene 57448) was 0.155, the “MTA3 log2FC” value (Gene 57504) was 0.345 and the “HACE1 log2FC” value (Gene 57531) was 0.593. For the same molecule, the “TAOK1 log2FC” value (Gene 57551) was 0.386, the “USP37 log2FC” value (Gene 57695) was 0.513 and the “FANCM log2FC” value (Gene 57697) was 0.486. For the same molecule, the “CCNB1IP1 log2FC” value (Gene 57820) was 1.174, the “RHOU log2FC” value (Gene 58480) was 1.289 and the “OVOL2 log2FC” value (Gene 58495) was -0.133. The “AVPI1 log2FC” value (Gene 60370) was 0.391, the “RINT1 log2FC” value (Gene 60561) was 0.804 and the “FAM111A log2FC” value (Gene 63901) was 0.319. The “DMRTC2 log2FC” value (Gene 63946) was -0.047, the “CLSPN log2FC” value (Gene 63967) was 0.066 and the “TSPYL2 log2FC” value (Gene 64061) was -0.073. The “DPEP3 log2FC” value (Gene 64180) was -0.246, the “RFWD2 log2FC” value (Gene 64326) was 0.063 and the “CENPH log2FC” value (Gene 64946) was 0.860. The “MRPL41 log2FC” value (Gene 64975) was -0.545, the “INTS3 log2FC” value (Gene 65123) was -0.455 and the “PHACTR4 log2FC” value (Gene 65979) was 0.399. For the same molecule, the “BOLL log2FC” value (Gene 66037) was -0.038, the “MIS12 log2FC” value (Gene 79003) was -0.429 and the “CENPM log2FC” value (Gene 79019) was -0.105. The “NUP37 log2FC” value (Gene 79023) was 0.431, the “ZNF655 log2FC” value (Gene 79027) was 0.893 and the “CENPO log2FC” value (Gene 79172) was -0.787. The “E2F8 log2FC” value (Gene 79733) was 0.114, the “FBXO31 log2FC” value (Gene 79791) was -0.232 and the “CSPP1 log2FC” value (Gene 79848) was 0.754. The “NEK11 log2FC” value (Gene 79858) was 0.568, the “MAP9 log2FC” value (Gene 79884) was 1.193 and the “NUP85 log2FC” value (Gene 79902) was 0.292. The “CEP76 log2FC” value (Gene 79959) was 0.323, the “CENPT log2FC” value (Gene 80152) was -0.175 and the “DBF4B log2FC” value (Gene 80174) was -0.579. For the same molecule, the “CEP290 log2FC” value (Gene 80184) was 0.854, the “CEP63 log2FC” value (Gene 80254) was 0.741 and the “CDK5RAP3 log2FC” value (Gene 80279) was -0.091. For the same molecule, the “CEP70 log2FC” value (Gene 80321) was 0.756, the “TUBB1 log2FC” value (Gene 81027) was -0.436 and the “NDEL1 log2FC” value (Gene 81565) was -0.111. The “FAM83D log2FC” value (Gene 81610) was -0.088, the “CAB39L log2FC” value (Gene 81617) was 0.106 and the “CCNL2 log2FC” value (Gene 81669) was 0.230. For the same molecule, the “CABLES2 log2FC” value (Gene 81928) was -0.937, the “KIF18A log2FC” value (Gene 81930) was 1.204 and the “SESN2 log2FC” value (Gene 83667) was -0.701. The “SETDB2 log2FC” value (Gene 83852) was 1.285, the “GSG2 log2FC” value (Gene 83903) was -0.491 and the “RASSF4 log2FC” value (Gene 83937) was 0.185. The “MND1 log2FC” value (Gene 84057) was 0.497, the “HORMAD1 log2FC” value (Gene 84072) was 0.519 and the “USP44 log2FC” value (Gene 84101) was -0.061. The “CEP78 log2FC” value (Gene 84131) was 0.550, the “GINS4 log2FC” value (Gene 84296) was -0.398 and the “RAB11FIP4 log2FC” value (Gene 84440) was 0.575. The “LZTS2 log2FC” value (Gene 84445) was 0.831, the “BRSK1 log2FC” value (Gene 84446) was -0.038 and the “SPIRE2 log2FC” value (Gene 84501) was 0.454. The “PARD6B log2FC” value (Gene 84612) was 0.731, the “PPP1R9B log2FC” value (Gene 84687) was -0.425 and the “SPATA22 log2FC” value (Gene 84690) was -0.013. For the same molecule, the “BEX2 log2FC” value (Gene 84707) was 0.736, the “PSRC1 log2FC” value (Gene 84722) was 0.114 and the “KLHL22 log2FC” value (Gene 84861) was 0.165. For the same molecule, the “TBRG1 log2FC” value (Gene 84897) was 0.370, the “MASTL log2FC” value (Gene 84930) was 0.592 and the “LSM10 log2FC” value (Gene 84967) was -1.152. The “CCNB3 log2FC” value (Gene 85417) was 0.077, the “LRRCC1 log2FC” value (Gene 85444) was 0.773 and the “DIXDC1 log2FC” value (Gene 85458) was 0.062. The “PNPT1 log2FC” value (Gene 87178) was 0.445, the “LMLN log2FC” value (Gene 89782) was 0.783 and the “KLHL13 log2FC” value (Gene 90293) was 0.112. For the same molecule, the “GADD45GIP1 log2FC” value (Gene 90480) was -0.402, the “SLFN11 log2FC” value (Gene 91607) was -0.432 and the “CENPL log2FC” value (Gene 91687) was 0.066. For the same molecule, the “CABLES1 log2FC” value (Gene 91768) was 1.627, the “SYCE1 log2FC” value (Gene 93426) was -0.072 and the “ACTR8 log2FC” value (Gene 93973) was 0.366. For the same molecule, the “TP53INP1 log2FC” value (Gene 94241) was 0.920, the “CDCA5 log2FC” value (Gene 113130) was 0.030 and the “TUBGCP5 log2FC” value (Gene 114791) was 0.520.
